Measured values reported in patent publication US8729109B2, “3-(4-(5-phenyl-1 ,2,4-oxadiazol-3-yl)phenoxy)propan-2-ol derivatives as sphingosine-1phosphate receptors modulators” (Allergan, Inc., priority 2011, dated 2014).

Tests used:
[1] = biological target: T1, human S1P1 receptor (Homo sapiens, UniProt P21453); assay: GTP γ35S binding assay, S1P1 activity; type: biochemical; details: membranes of cells stably expressing S1P1 receptor, agonist potency
T1 construct: expressed in transfected cells; membranes used
T1 sequence (P21453 whole entry): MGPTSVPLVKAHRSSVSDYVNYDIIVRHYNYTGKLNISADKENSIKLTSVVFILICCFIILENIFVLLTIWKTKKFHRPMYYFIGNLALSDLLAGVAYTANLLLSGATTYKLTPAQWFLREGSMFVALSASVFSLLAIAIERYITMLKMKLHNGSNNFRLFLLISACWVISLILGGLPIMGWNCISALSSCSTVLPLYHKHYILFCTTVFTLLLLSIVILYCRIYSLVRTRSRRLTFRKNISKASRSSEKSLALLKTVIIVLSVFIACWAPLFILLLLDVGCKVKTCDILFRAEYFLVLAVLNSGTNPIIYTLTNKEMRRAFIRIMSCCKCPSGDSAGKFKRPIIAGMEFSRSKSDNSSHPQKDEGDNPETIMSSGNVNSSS
Protocol: Compounds were synthesized and tested for S1P1 activity using the GTP γ^35S binding assay. These compounds may be assessed for their ability to activate or block activation of the human S1P1 receptor in cells stably expressing the S1P1 receptor.
GTP γ^35S binding was measured in the medium containing (mM) HEPES 25, pH 7.4, MgCl2 10, NaCl 100, dithitothreitol 0.5, digitonin 0.003%, 0.2 nM GTP γ^35S, and 5 μg membrane protein in a volume of 150 μl. Test compounds were included in the concentration range from 0.08 to 5,000 nM unless indicated otherwise. Membranes were incubated with 100 μM 5′-adenylylimmidodiphosphate for 30 min, and subsequently with 10 μM GDP for 10 min on ice. Drug solutions and membrane were mixed, and then reactions were initiated by adding GTP γ^35S and continued for 30 min at 25° C. Reaction mixtures were filtered over Whatman GF/B filters under vacuum, and washed three times with 3 mL of ice-cold buffer (HEPES 25, pH 7.4, MgCl2 10 and NaCl 100). Filters were dried and mixed with scintillant, and counted for ^35S activity using a β-counter. Agonist-induced GTP γ^35S binding was obtained by subtracting that in the absence of agonist. Binding data were analyzed using a non-linear regression method. In case of antagonist assay, the reaction mixture contained 10 nM […] in the presence of test antagonist at concentrations ranging from 0.08 to 5000 nM.

[2] = tested on: lymphocytes in the blood; assay: Lymphopenia assay in mice; type: in vivo; details: female C57BL6 mice, 10 mg/Kg subcutaneously, after 96 h of drug application (FIG. 1)
Protocol: Lymphopenia Assay in Mice
Compound 1, 5-{3-[3-chloro-4-(2,3-dihydroxypropoxy)phenyl]-1,2,4-oxadiazol-5-yl}-2-isopropoxybenzonitrile, was prepared in a solution containing 3% (w/v) 2-hydroxy propyl β-cyclodextrin (HPBCD) and 1% DMSO to a final concentration of 1 mg/ml, and subcutaneously injected to female C57BL6 mice (CHARLES RIVERS) weighing 20-25 g at the dose of 10 mg/Kg. Blood samples were obtained by puncturing the submandibular skin with a Goldenrod animal lancet at 24, 48, 72, and 96 hrs post drug application. Blood was collected into microvettes (SARSTEDT) containing EDTA tripotassium salt. Lymphocytes in blood samples were counted using a HEMAVET Multispecies Hematology System, HEMAVET HV950FS (Drew Scientific Inc.). (Hale, J. et al Bioorg. & Med. Chem. Lett. 14 (2004) 3351).The results are presented in FIG. 1: the number of lymphocytes in the blood was reduced by Compound 1 after 96 h of drug application.

Structure (SMILES)	EC50 [1]	number of lymphocytes in the blood [2]
COP(=O)(OC)OCC(O)COc1ccc(-c2noc(-c3ccc(OC(C)C)c(C#N)c3)n2)cc1Cl (centres unmarked) [Compound 2, 3-{2-chloro-4-[5-(3-cyano-4-isopropoxyphenyl)-1,2,4-oxadiazol-3-yl]phenoxy}-2-hydroxypropyl dimethyl phosphate]	2.88 nM	–
CC(C)Oc1ccc(-c2nc(-c3ccc(OCC(O)CO)c(Cl)c3)no2)cc1C#N (centres unmarked) [Compound 1, 5-{3-[3-chloro-4-(2,3-dihydroxypropoxy)phenyl]-1,2,4-oxadiazol-5-yl}-2-isopropoxybenzonitrile]	10.3 nM	reduced
COP(=O)(O)OCC(O)COc1ccc(-c2noc(-c3ccc(OC(C)C)c(C#N)c3)n2)cc1Cl (centres unmarked) [Compound 3, 3-{2-chloro-4-[5-(3-cyano-4-isopropoxyphenyl)-1,2,4-oxadiazol-3-yl]phenoxy}-2-hydroxypropyl methyl hydrogen phosphate]	20.4 nM	–
CC(C)Oc1ccc(-c2nc(-c3ccc(OCC(O)COP(=O)(O)O)c(Cl)c3)no2)cc1C#N (centres unmarked) [Compound 4, 3-{2-chloro-4-[5-(3-cyano-4-isopropoxyphenyl)-1,2,4-oxadiazol-3-yl]phenoxy}-2-hydroxypropyl dihydrogen phosphate]	4580 nM	–
